Measurements: US12312293B2, “Branched tail lipid compounds and compositions for intracellular delivery of therapeutic agents” (ModernaTX, Inc., priority 2019, dated 2025)

Columns and labels:
[1] = Characteristics of lipid nanoparticles (size, PDI, encapsulation efficiency); type: physicochemical; conditions: LNP with DSPC, cholesterol, PEG-1 and the compound; for % EE: encapsulation efficiency; for PDI: polydispersity index
Text: Lipid nanoparticles (e.g., empty LNPs or loaded LNPs) may be characterized by a variety of methods. For example, microscopy (e.g., transmission electron microscopy or scanning electron microscopy) may be used to examine the morphology and size distribution of a nanoparticle composition. Dynamic light scattering or potentiometry (e.g., potentiometric titrations) may be used to measure zeta potentials. Dynamic light scattering may also be utilized to determine particle sizes. Instruments such as the Zetasizer Nano ZS (Malvern Instruments Ltd, Malvern, Worcestershire, UK) may also be used to measure multiple characteristics of a nanoparticle composition, such as particle size, polydispersity index, and zeta potential.
The efficiency of encapsulation of a therapeutic and/or prophylactic describes the amount of therapeutic and/or prophylactic that is encapsulated or otherwise associated with a lipid nanoparticle (e.g., an empty LNP or a loaded LNP) after preparation, relative to the initial amount provided. The encapsulation efficiency is desirably high (e.g., close to 100%). The encapsulation efficiency may be measured, for example, by comparing the amount of therapeutic and/or prophylactic in a solution containing the lipid nanoparticle (e.g., an empty LNP or a loaded LNP) before and after breaking up the lipid nanoparticle (e.g., an empty LNP or a loaded LNP) with one or more organic solvents or detergents. Fluorescence may be used to measure the amount of free therapeutic and/or prophylactic (e.g., RNA) in a solution. For the lipid nanoparticles (e.g., empty LNPs or loaded LNPs) described herein, the encapsulation efficiency of a therapeutic and/or prophylactic may be at least 50%, for example 50%, 55%, 60%, 65%, 70%, 75%, 80%, 85%, 90%, 91%, 92%, 93%, 94%, 95%, 96%, 97%, 98%, 99%, or 100%. In some embodiments, the encapsulation efficiency may be at least 80%. In certain embodiments, the encapsulation efficiency may be at least 90%. In some embodiments, the encapsulation efficiency of the therapeutic and/or prophylactic agent is between 80% and 100%.
Lipid nanoparticles (e.g., empty LNPs or loaded LNPs) including DSPC as a phospholipid, cholesterol as a structural lipid, PEG-1 as a PEG lipid, and a compound according to Formula (1-1), (2-1), (I-a), (A), (B), (A-1), (A-2), (A-3), (IA), (IB), (B-1), (B-2), (B-3), (A-a), (A-a1), (A-a2), (A-a3), (A-b), (A-b1), (A-b2), (A-b3), (A-c), or (B-c) were prepared. Tables 2a and 2b summarize the characteristics of the formulations.

[2] = Residual lipid levels in the liver of mice after LNP administration; type: in vivo; conditions: calculation assumes a 25 g mouse with a 1.5 g liver

| Structure (SMILES) | Size (nm) [1] [nm] | % EE [1] [%] | PDI [1] | Approx. Percent Total Dose of Parent Lipid Remaining at 24 h [2] [%] |
| --- | --- | --- | --- | --- |
| CCCCCC(CCCCC)CCOC(=O)CCCCCCCN(CCCCCCCC(=O)OCCC(CCCC)CCCC)CCCNc1c(NC)c(=O)c1=O [Compound 54, 3-Butylheptyl 8-((3-((2-(methylamino)-3,4-dioxocyclobut-1-en-1-yl)amino)propyl)(8-oxo-8-((3-pentyloctyl)oxy)octyl)amino)octanoate] | 64.3 | 98.3 | 0.10 |  |
| CCCCC(CCCC)CCOC(=O)CCCCCCCN(CCCCCCCC(=O)OCCC(CCC)CCC)CCCNc1c(NC)c(=O)c1=O [Compound 52, 3-Butylheptyl 8-((3-((2-(methylamino)-3,4-dioxocyclobut-1-en-1-yl)amino)propyl)(8-oxo-8-((3-propylhexyl)oxy)octyl)amino)octanoate] | 70.5 | 84.9 | 0.16 |  |
| CCCCC(CCCC)CCOC(=O)CCCCCCCN(CCCCCCCC(=O)OCCC(CCCC)CCCC)CCCNc1c(NC)c(=O)c1=O [Compound 55, Bis(3-butylheptyl) 8,8′-((3-((2-(methylamino)-3,4-dioxocyclobut-1-en-1-yl)amino)propyl)azanediyl)dioctanoate] | 77.0 | 88.9 | 0.25 |  |
| CCCCCCC(CCCCCC)OC(=O)CCCCCCCN(CCCCCCCC(=O)OCCC(CCCC)CCCC)CCCNc1c(NC)c(=O)c1=O [Compound 60, 3-Butylheptyl 8-((3-((2-(methylamino)-3,4-dioxocyclobut-1-en-1-yl)amino)propyl)(8-oxo-8-(tridecan-7-yloxy)octyl)amino)octanoate] | 60.4 | 98.8 | 0.14 |  |
| CCCCCC(CCCCC)CCOC(=O)CCCCCCCN(CCCCCCCC(=O)OC(CCCC)CCCC)CCCNc1c(NC)c(=O)c1=O [Compound 58, Nonan-5-yl 8-((3-((2-(methylamino)-3,4-dioxocyclobut-1-en-1-yl)amino)propyl)(8-oxo-8-((3-pentyloctyl)oxy)octyl)amino)octanoate] | 63.9 | 90.1 | 0.12 |  |
| CCCCC(CCCC)CCOC(=O)CCCCCCCN(CCCCCCCC(=O)OC(CCCC)CCCC)CCCNc1c(NC)c(=O)c1=O [Compound 62, 3-Butylheptyl 8-((3-((2-(methylamino)-3,4-dioxocyclobut-1-en-1-yl)amino)propyl)(8-(nonan-5-yloxy)-8-oxooctyl)amino)octanoate] | 91.0 | 83.0 | 0.17 |  |

Continued, values first:

| Size (nm) [1] [nm] | % EE [1] [%] | PDI [1] | Approx. Percent Total Dose of Parent Lipid Remaining at 24 h [2] [%] | Structure (SMILES) |
| --- | --- | --- | --- | --- |
| 58.3 | 95.9 | 0.12 |  | CCCCCC(CCCCC)CCOC(=O)CCCCCCCN(CCCCCCCC(=O)OCCC(CCC)CCC)CCCNc1c(NC)c(=O)c1=O [Compound 51, 3-Pentyloctyl 8-((3-((2-(methylamino)-3,4-dioxocyclobut-1-en-1-yl)amino)propyl)(8-oxo-8-((3-propylhexyl)oxy)octyl)amino)octanoate] |
| 145.3 | 81.7 | 0.25 |  | CCCCC(CCCC)OC(=O)CCCCCCCN(CCCCCCCC(=O)OCCC(CCC)CCC)CCCNc1c(NC)c(=O)c1=O [Compound 66, Nonan-5-yl 8-((3-((2-(methylamino)-3,4-dioxocyclobut-1-en-1-yl)amino)propyl)(8-oxo-8-((3-propylhexyl)oxy)octyl)amino)octanoate] |
| 106.7 | 84.2 | 0.28 |  | CCCC(CCC)CCOC(=O)CCCCCCCN(CCCCCCCC(=O)OCCC(CCC)CCC)CCCNc1c(NC)c(=O)c1=O [Compound 53, Bis(3-propylhexyl) 8,8′-((3-((2-(methylamino)-3,4-dioxocyclobut-1-en-1-yl)amino)propyl)azanediyl)dioctanoate] |
| 63.5 | 98.1 | 0.09 |  | CCCCCC(CCCCC)OC(=O)CCCCCCCN(CCCCCCCC(=O)OCCC(CCCC)CCCC)CCCNc1c(NC)c(=O)c1=O [Compound 61, 3-Butylheptyl 8-((3-((2-(methylamino)-3,4-dioxocyclobut-1-en-1-yl)amino)propyl)(8-oxo-8-(undecan-6-yloxy)octyl)amino)octanoate] |
| 56.2 | 98.1 | 0.15 | 9 ± 3 | CCCCCCCC(CCCCCCC)OC(=O)CCCCCCCN(CCCCCCCC(=O)OCCC(CCC)CCC)CCCNc1c(NC)c(=O)c1=O [Compound 63, Pentadecan-8-yl 8-((3-((2-(methylamino)-3,4-dioxocyclobut-1-en-1-yl)amino)propyl)(8-oxo-8-((3-propylhexyl)oxy)octyl)amino)octanoate] |
| 83.1 | 88.6 | 0.17 |  | CCCCCC(CCCCC)OC(=O)CCCCCCCN(CCCCCCCC(=O)OCCC(CCC)CCC)CCCNc1c(NC)c(=O)c1=O [Compound 65, 3-Propylhexyl 8-((3-((2-(methylamino)-3,4-dioxocyclobut-1-en-1-yl)amino)propyl)(8-oxo-8-(undecan-6-yloxy)octyl)amino)octanoate] |
| 73.6 | 89.2 | 0.13 |  | CCCCCCC(CCCCCC)OC(=O)CCCCCCCN(CCCCCCCC(=O)OCCC(CCC)CCC)CCCNc1c(NC)c(=O)c1=O [Compound 64, 3-Propylhexyl 8-((3-((2-(methylamino)-3,4-dioxocyclobut-1-en-1-yl)amino)propyl)(8-oxo-8-(tridecan-7-yloxy)octyl)amino)octanoate] |
| 69.4 | 90.1 | 0.12 |  | CCCCCC(CCCCC)CCOC(=O)CCCCCCCN(CCCCCCCC(=O)OC(CCCCC)CCCCC)CCCNc1c(NC)c(=O)c1=O [Compound 57, 3-Pentyloctyl 8-((3-((2-(methylamino)-3,4-dioxocyclobut-1-en-1-yl)amino)propyl)(8-oxo-8-(undecan-6-yloxy)octyl)amino)octanoate] |
